What was measured:
Experiment in all cases: KinaseProfiler kinase panel
Type in all cases: biochemical
Flt3(h) = Flt3(h) (Homo sapiens (Human), UniProt P36888)
CDK3/cyclinE(h) = CDK3/cyclinE(h) (Homo sapiens (Human), UniProt Q00526)
EGFR(L861Q)(h) = EGFR(L861Q)(h) (Homo sapiens (Human), UniProt P00533, L861Q)
Ret(h) = Ret(h) (Homo sapiens (Human), UniProt P07949)
KDR(h) = KDR(h) (Homo sapiens (Human), UniProt P35968)
PIM-3(h) = PIM-3(h) (Homo sapiens (Human), UniProt Q86V86)
cKit(V560G)(h) = cKit(V560G)(h) (Homo sapiens (Human), UniProt P10721, V560G)
IRAK4(h) = IRAK4(h) (Homo sapiens (Human), UniProt Q9NWZ3)
IKKα(h) = IKKα(h) (Homo sapiens (Human), UniProt O15111)
Fgr(h) = Fgr(h) (Homo sapiens (Human), UniProt P09769)
SAPK3(h) = SAPK3(h) (Homo sapiens (Human), UniProt P53778)
Met(M1268T)(h) = Met(M1268T)(h) (Homo sapiens (Human), UniProt P08581, M1268T)
Met(Y1248H)(h) = Met(Y1248H)(h) (Homo sapiens (Human), UniProt P08581, Y1248H)
Chain of Met(Y1248H)(h) (P08581 other isoform, or with tags, fused parts or gaps Y1248H): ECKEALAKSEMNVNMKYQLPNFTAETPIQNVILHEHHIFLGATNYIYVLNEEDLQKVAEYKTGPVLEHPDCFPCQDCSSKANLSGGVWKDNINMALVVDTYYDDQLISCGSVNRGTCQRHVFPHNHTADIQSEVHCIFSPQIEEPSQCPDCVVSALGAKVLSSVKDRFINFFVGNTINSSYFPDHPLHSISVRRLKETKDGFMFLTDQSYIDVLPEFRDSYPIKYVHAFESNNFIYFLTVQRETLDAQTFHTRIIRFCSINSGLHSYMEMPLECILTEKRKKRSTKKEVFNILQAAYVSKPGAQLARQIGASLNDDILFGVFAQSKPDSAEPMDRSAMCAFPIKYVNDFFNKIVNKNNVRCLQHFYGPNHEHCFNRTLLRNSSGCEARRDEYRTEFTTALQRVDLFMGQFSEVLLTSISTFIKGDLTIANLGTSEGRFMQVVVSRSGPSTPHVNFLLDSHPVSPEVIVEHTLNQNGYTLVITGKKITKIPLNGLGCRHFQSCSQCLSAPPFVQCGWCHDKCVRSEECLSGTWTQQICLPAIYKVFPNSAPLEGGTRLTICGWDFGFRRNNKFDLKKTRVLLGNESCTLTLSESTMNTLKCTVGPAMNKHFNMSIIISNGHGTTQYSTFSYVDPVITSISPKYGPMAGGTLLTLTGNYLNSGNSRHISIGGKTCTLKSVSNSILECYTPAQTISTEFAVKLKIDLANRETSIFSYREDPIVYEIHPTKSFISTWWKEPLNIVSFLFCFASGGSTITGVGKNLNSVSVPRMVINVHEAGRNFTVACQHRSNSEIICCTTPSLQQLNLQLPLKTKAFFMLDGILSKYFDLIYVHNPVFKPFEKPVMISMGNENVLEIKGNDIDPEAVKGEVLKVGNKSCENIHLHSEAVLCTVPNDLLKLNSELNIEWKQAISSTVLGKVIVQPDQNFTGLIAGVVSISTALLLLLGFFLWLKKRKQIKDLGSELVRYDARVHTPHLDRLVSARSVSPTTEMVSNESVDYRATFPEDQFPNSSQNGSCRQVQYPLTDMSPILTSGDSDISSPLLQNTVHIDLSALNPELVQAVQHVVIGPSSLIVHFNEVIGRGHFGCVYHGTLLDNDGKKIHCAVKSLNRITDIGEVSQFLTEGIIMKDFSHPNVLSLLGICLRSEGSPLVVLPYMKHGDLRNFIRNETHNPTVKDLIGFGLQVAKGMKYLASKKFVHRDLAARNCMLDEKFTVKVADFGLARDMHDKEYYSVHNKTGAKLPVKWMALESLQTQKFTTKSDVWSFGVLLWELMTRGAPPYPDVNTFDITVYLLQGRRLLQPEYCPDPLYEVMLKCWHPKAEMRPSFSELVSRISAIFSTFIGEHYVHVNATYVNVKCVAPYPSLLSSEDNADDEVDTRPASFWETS

PKA(h) = PKA(h) (Homo sapiens (Human), UniProt P17612)
MST1(h) = MST1(h) (Homo sapiens (Human), UniProt Q13043)
GCK(h) = GCK(h) (Homo sapiens (Human), UniProt Q12851)
Chain of GCK(h) (Q12851 whole entry): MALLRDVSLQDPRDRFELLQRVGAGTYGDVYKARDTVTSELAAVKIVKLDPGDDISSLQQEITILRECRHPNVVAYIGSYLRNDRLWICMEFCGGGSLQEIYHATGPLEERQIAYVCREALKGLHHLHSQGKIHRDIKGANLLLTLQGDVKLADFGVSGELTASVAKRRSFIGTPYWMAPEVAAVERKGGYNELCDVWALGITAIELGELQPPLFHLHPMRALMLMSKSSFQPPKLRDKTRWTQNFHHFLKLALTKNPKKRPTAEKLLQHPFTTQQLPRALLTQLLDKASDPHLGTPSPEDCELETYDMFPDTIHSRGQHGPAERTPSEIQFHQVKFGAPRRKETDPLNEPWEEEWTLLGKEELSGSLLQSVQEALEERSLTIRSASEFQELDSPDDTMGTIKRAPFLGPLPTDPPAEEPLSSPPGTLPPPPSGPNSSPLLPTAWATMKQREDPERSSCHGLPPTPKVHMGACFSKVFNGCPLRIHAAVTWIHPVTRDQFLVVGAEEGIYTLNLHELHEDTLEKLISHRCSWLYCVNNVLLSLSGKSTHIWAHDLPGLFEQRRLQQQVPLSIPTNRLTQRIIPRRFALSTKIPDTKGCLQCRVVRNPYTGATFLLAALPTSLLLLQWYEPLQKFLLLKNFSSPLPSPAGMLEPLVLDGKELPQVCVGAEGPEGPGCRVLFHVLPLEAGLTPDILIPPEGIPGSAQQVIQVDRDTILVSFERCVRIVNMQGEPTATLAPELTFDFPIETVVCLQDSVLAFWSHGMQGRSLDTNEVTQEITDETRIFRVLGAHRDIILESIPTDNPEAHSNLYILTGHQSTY

SIK(h) = SIK(h) (Homo sapiens (Human), UniProt P57059)
CK1γ2(h) = CK1γ2(h) (Homo sapiens (Human), UniProt P78368)
NEK3(h) = NEK3(h) (Homo sapiens (Human), UniProt P51956)
MINK(h) = MINK(h) (Homo sapiens (Human), UniProt Q8N4C8)
Abl(Y253F)(h) = Abl(Y253F)(h) (Homo sapiens (Human), UniProt P00519, Y253F)
Tie2 (h) = Tie2 (h) (Homo sapiens (Human), UniProt Q02763)
GRK7(h) = GRK7(h) (Homo sapiens (Human), UniProt Q8WTQ7)
IR(h), activated = IR(h), activated (Homo sapiens (Human), UniProt P06213)
Bmx(h) = Bmx(h) (Homo sapiens (Human), UniProt P51813)
Abl (M351T)(h) = Abl (M351T)(h) (Homo sapiens (Human), UniProt P00519, M351T)
GRK5(h) = GRK5(h) (Homo sapiens (Human), UniProt P34947)
DMPK(h) = DMPK(h) (Homo sapiens (Human), UniProt Q09013)
LIMK1(h) = LIMK1(h) (Homo sapiens (Human), UniProt P53667)
Txk(h) = Txk(h) (Homo sapiens (Human), UniProt P42681)
DAPK1(h) = DAPK1(h) (Homo sapiens (Human), UniProt P53355)
MKK4(m) = MKK4(m) (Mus musculus (Mouse), UniProt P47809)
Plk3(h) = Plk3(h) (Homo sapiens (Human), UniProt Q9H4B4)
VRK2(h) = VRK2(h) (Homo sapiens (Human), UniProt Q86Y07)
IR(h) = IR(h) (Homo sapiens (Human), UniProt P06213)
DDR2(h) = DDR2(h) (Homo sapiens (Human), UniProt Q16832)
Chain of DDR2(h) (Q16832 22-855): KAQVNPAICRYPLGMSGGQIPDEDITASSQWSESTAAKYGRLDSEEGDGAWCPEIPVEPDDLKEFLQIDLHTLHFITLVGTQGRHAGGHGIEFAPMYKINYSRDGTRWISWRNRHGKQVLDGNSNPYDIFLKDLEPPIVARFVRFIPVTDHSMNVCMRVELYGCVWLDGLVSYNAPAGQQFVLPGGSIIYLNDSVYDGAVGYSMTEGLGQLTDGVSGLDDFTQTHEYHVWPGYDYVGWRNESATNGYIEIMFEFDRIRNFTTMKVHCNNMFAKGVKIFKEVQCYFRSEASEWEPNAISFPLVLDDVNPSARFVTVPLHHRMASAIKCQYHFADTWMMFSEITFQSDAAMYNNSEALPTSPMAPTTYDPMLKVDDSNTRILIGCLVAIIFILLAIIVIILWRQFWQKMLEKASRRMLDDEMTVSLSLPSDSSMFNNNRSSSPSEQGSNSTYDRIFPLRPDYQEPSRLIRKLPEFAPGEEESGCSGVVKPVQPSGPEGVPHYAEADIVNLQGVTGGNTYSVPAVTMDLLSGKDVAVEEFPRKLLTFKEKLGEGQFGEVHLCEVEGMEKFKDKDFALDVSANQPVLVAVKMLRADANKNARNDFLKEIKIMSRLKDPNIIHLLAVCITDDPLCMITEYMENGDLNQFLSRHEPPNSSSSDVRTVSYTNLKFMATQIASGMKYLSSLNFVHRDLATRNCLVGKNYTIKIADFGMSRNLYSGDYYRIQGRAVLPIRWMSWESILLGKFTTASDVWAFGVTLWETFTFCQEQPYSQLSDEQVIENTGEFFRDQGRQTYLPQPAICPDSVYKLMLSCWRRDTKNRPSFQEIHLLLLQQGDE

Abl (H396P) (h) = Abl (H396P) (h) (Homo sapiens (Human), UniProt P00519, H396P)
PKCζ(h) = PKCζ(h) (Homo sapiens (Human), UniProt Q05513)
Plk1(h) = Plk1(h) (Homo sapiens (Human), UniProt P53350)
Aurora-A(h) = Aurora-A(h) (Homo sapiens (Human), UniProt O14965)

Chain of CDK3/cyclinE(h) (Q00526 whole entry): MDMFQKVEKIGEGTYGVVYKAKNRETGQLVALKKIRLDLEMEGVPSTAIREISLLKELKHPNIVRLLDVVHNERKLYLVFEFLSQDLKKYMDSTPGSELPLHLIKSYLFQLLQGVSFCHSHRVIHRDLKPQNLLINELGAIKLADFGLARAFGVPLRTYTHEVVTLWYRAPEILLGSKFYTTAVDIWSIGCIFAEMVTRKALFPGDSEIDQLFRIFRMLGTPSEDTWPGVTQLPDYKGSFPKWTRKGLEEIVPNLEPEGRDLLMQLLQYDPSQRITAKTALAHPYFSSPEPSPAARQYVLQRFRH
Chain of CDK3/cyclinE(h) (P24864 whole entry partner): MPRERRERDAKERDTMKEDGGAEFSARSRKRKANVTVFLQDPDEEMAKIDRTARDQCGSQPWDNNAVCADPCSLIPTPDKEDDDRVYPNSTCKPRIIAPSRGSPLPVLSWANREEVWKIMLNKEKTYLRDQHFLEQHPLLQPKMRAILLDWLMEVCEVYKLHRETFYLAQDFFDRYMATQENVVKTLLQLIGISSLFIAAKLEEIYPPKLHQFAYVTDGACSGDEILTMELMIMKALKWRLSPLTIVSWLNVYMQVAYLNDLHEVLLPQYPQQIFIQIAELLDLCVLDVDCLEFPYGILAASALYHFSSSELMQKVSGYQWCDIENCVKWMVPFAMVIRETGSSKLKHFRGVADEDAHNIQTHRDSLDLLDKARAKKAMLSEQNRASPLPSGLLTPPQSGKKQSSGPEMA
Chain of EGFR(L861Q)(h) (P00533 25-1210 L861Q): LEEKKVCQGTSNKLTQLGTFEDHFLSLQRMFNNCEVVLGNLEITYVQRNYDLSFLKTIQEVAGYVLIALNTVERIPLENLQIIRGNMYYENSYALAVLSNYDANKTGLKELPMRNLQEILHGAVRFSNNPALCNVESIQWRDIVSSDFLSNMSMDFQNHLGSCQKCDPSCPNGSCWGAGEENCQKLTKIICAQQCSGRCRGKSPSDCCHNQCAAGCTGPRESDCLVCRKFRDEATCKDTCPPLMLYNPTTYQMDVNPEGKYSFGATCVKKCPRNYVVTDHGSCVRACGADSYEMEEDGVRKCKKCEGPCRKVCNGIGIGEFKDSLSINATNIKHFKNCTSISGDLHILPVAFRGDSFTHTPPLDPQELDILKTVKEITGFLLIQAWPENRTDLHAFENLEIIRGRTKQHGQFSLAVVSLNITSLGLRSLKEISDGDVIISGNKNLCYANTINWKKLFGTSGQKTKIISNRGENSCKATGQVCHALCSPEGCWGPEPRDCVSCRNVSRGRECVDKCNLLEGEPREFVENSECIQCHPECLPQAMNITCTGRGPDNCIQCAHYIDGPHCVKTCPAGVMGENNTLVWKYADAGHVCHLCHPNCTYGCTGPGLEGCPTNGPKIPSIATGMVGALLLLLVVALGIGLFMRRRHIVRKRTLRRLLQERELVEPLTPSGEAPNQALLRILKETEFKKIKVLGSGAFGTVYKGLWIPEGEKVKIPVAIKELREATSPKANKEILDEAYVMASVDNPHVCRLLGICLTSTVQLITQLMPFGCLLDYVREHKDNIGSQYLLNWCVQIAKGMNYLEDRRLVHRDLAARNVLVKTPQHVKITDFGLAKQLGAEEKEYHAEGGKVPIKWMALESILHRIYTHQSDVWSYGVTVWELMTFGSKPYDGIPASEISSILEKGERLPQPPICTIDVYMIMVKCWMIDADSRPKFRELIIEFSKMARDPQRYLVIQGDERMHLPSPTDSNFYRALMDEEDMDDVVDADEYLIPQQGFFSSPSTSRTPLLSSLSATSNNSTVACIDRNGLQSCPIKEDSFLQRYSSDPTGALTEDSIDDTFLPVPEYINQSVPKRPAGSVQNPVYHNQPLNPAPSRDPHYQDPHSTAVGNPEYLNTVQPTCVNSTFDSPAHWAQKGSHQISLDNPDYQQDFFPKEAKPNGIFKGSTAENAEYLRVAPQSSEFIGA

Structure (SMILES): CCn1c(N2CCNCC2)nc2c(Br)c(Br)c(Br)c(Br)c21 [Compound 416, 4,5,6,7-tetrabromo-1-ethyl-2-(piperazin-1-yl)-1H-benzo[d]imidazole]
- remaining activity at 1 µM (Flt3(h)): 0%
- remaining activity at 1 µM (CDK3/cyclinE(h)): 16%
- remaining activity at 1 µM (EGFR(L861Q)(h)): 27%
- remaining activity at 1 µM (Ret(h)): 27%
- remaining activity at 1 µM (KDR(h)): 28%
- remaining activity at 1 µM (PIM-3(h)): 34%
- remaining activity at 1 µM (cKit(V560G)(h)): 35%
- remaining activity at 1 µM (IRAK4(h)): 52%
- remaining activity at 1 µM (IKKα(h)): 56%
- remaining activity at 1 µM (Fgr(h)): 67%
- remaining activity at 1 µM (SAPK3(h)): 68%
- remaining activity at 1 µM (Met(M1268T)(h)): 70%
- remaining activity at 1 µM (Met(Y1248H)(h)): 70%
- remaining activity at 1 µM (PKA(h)): 70%
- remaining activity at 1 µM (MST1(h)): 71%
- remaining activity at 1 µM (GCK(h)): 75%
- remaining activity at 1 µM (SIK(h)): 84%
- remaining activity at 1 µM (CK1γ2(h)): 85%
- remaining activity at 1 µM (NEK3(h)): 85%
- remaining activity at 1 µM (MINK(h)): 87%
- remaining activity at 1 µM (Abl(Y253F)(h)): 92%
- remaining activity at 1 µM (Tie2 (h)): 92%
- remaining activity at 1 µM (GRK7(h)): 93%
- remaining activity at 1 µM (IR(h), activated): 93%
- remaining activity at 1 µM (Bmx(h)): 94%
- remaining activity at 1 µM (Abl (M351T)(h)): 95%
- remaining activity at 1 µM (GRK5(h)): 96%
- remaining activity at 1 µM (DMPK(h)): 97%
- remaining activity at 1 µM (LIMK1(h)): 98%
- remaining activity at 1 µM (Txk(h)): 99%
- remaining activity at 1 µM (DAPK1(h)): 100%
- remaining activity at 1 µM (MKK4(m)): 100%
- remaining activity at 1 µM (Plk3(h)): 101%
- remaining activity at 1 µM (VRK2(h)): 103%
- remaining activity at 1 µM (IR(h)): 104%
- remaining activity at 1 µM (DDR2(h)): 105%
- remaining activity at 1 µM (Abl (H396P) (h)): 107%
- remaining activity at 1 µM (PKCζ(h)): 107%
- remaining activity at 1 µM (Plk1(h)): 117%
- remaining activity at 1 µM (Aurora-A(h)): 125%

Source: patent US8604217B2, “Compound, a process for its preparation, a pharmaceutical composition, use of a compound, a method for modulating or regulating serine/threonine kinases and a serine/threonine kinases modulating agent” (Selvita S.A., priority 2009, dated 2013)
